According to PubChem BioAssay AID2060362 (Molecular Pharmacology Branch, DTP, NCI, 2025):

System: 128128-338-R-J1-PDC spheroids, viability % test/control
Assay: Anticancer human tumor 128128-338-R-J1-PDC patient-derived melanoma cell line growth inhibition [TAK]
Details: spheroids with HUVEC and MSC; for IC50: curve of first compound; for viability, T/C: stronger effect = lower value
Excerpt: Combinatorial screen of targeted agents with TAK-243 and ipatasertib in multi-cell type tumor spheroids
A high-throughput screen of multi-cell type tumor spheroids was designed to identify active combinations of targeted small molecules and TAK-243 or ipatasertib. Complex spheroids include a stromal component modeled by human endothelial cells (HUVEC) and fibroblasts modeled by human mesenchymal stem cells (MSCs). The concentration ranges selected for each drug and investigational agent were based upon clinically achievable concentrations if the clinical Cmax of the agent was known.
Compounds. The drugs and investigational agents: TAK-243 (785004), ipatasertib (767898), everolimus (733504), selumetinib (741078), bortezomib (756655), trametinib (758246), ixazomib (758254), vemurafenib (761431), dabrafenib (764134), sapanisertib (764658), alpelisib (765974), and copanlisib (816437), were obtained from the National Cancer Institute (NCI) Developmental Therapeutics Program Chemical Repository. The FDA-approved anticancer drug set is available from the NCI Developmental Therapeutics Program. […] The stock solutions were prepared in dimethyl sulfoxide (DMSO, Sigma-Aldrich, St. Louis, MO, cat. D2650) at 800-fold the tested concentration and stored at -70 degrees C prior to their use. All drugs and investigational agents were tested over a range starting from a high concentration at or near the clinical Cmax and decreasing in half-log increments. If the clinical Cmax for an agent had not been determined, the highest concentration tested was 10 microM.
NCI60 Cell Culture. NCI60 cell lines were obtained from the NCI Developmental Therapeutics Program Tumor Repository. For each lot of cells, the Repository performed Applied Biosystems AmpFLSTR Identifiler testing with PCR amplification to confirm consistency with the published Identifier STR profile for each cell line. Cells were kept in continuous culture for no more than 20 passages. The optimal seeding densities for each of the cell lines at each time point assessed were determined prior to performing the concentration response studies. Briefly, the NCI60 human tumor lines were grown as monolayers in RPMI 1640 medium supplemented with 10% FBS and 2 mmol/L L-glutamine.
An additional 2 lines were from the NCI60 cell line panel including melanomas, MALME-3M and SK-MEL-2. Pooled donor human umbilical vein endothelial cells (HUVEC, Lonza, cat. CC-2519) and human mesenchymal stem cells (hMSC, Lonza, cat. PT-2501) were purchased from Lonza (Walkersville, MD).
PDMR cell lines were grown in complete medium (DC medium): Dulbecco's modified Eagle's medium (DMEM)/F12 supplemented with 5% fetal bovine serum (FBS), 2 mM L-glutamine, 100 U/mL penicillin and 100 µg/ml streptomycin, 0.4 µg/ml hydrocortisone, 10 ng/ml epidermal growth factor (EGF) recombinant human protein, 24 µg/mL adenine, and 0.1 mg/mL primocin. During culture from frozen stock vials, PDMR cells were cultured in the same medium containing 10 µM Y-27632 (see Table 3). The PDCs were cultured in complete DMEM/F12 media without 10 microM Y-27632 dihydrochloride for at least two passages prior to the screen. The pooled donor HUVEC and hMSC were cultured in endothelial cell growth medium 2 (PromoCell, Heidelberg, Germany, cat. C-22011) and mesenchymal stem cell growth medium 2 (PromoCell, cat. C-28009), respectively. For all experiments, HUVEC and hMSC were used at passages </=5.
For the pre-screen, cell seeding densities were determined from a titration spanning the range from 5,000 to 313 cells per well. The mct-spheroids including 60% malignant cells, 25% HUVEC and 15% MSC dispensed as a mixture into U-bottom Ultra-Low Attachment 384-well plates (Corning, NY)
High-throughput Drug Combination Screening.
Prior to their inoculation into 384-well plates, malignant cells, HUVEC, and hMSC were removed from T flasks using TrypLE express (Thermo Fisher Scientific, cat. 12605036) and harvested by centrifugation for 5 min at 233 x g. […]

[1] = second compound 0.3 µM, first compound 0.000316 µM
[2] = second compound 0.3 µM, first compound 0.001 µM
[3] = second compound 0.3 µM, first compound 0.00316 µM
[4] = second compound 0.3 µM, first compound 0.01 µM
[5] = second compound 0.3 µM, first compound 0.0316 µM
[6] = second compound 0.3 µM, first compound 0.1 µM
[7] = second compound 0.949 µM, first compound 0.000316 µM
[8] = second compound 0.949 µM, first compound 0.001 µM
[9] = second compound 0.949 µM, first compound 0.00316 µM
[10] = second compound 0.949 µM, first compound 0.01 µM
[11] = second compound 0.949 µM, first compound 0.0316 µM
[12] = second compound 0.949 µM, first compound 0.1 µM
[13] = second compound 3 µM, first compound 0.000316 µM
[14] = second compound 3 µM, first compound 0.001 µM
[15] = second compound 3 µM, first compound 0.00316 µM
[16] = second compound 3 µM, first compound 0.01 µM
[17] = second compound 3 µM, first compound 0.0316 µM
[18] = second compound 3 µM, first compound 0.1 µM
[19] = second compound 9.49 µM, first compound 0.000316 µM
[20] = second compound 9.49 µM, first compound 0.001 µM
[21] = second compound 9.49 µM, first compound 0.00316 µM
[22] = second compound 9.49 µM, first compound 0.01 µM
[23] = second compound 9.49 µM, first compound 0.0316 µM
[24] = second compound 9.49 µM, first compound 0.1 µM
[25] = second compound 30 µM, first compound 0.000316 µM
[26] = second compound 30 µM, first compound 0.001 µM
[27] = second compound 30 µM, first compound 0.00316 µM
[28] = second compound 30 µM, first compound 0.01 µM
[29] = second compound 30 µM, first compound 0.0316 µM
[30] = second compound 30 µM, first compound 0.1 µM
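Note: spheroids exposed to compounds for 7 days.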
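Throughout, for viability, T/C: 100% = DMSO vehicle wells.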

In the case of `CC(C)CC(NC(=O)CNC(=O)c1cc(Cl)ccc1Cl)B1OC(=O)CC(CC(=O)O)(C(=O)O)O1` (stereo not given) + CC(C)NCC(C(=O)N1CCN(c2ncnc3c2C(C)CC3O)CC1)c1ccc(Cl)cc1, the IC50 (second compound 0.3 µM) is reported as 8.01 nM, the IC50 (second compound 0.949 µM) is reported as 7.78 nM and the IC50 (second compound 3 µM) is reported as 5.61 nM. For the same molecule, the IC50 (second compound 9.49 µM) was 4.79 nM, the IC50 (second compound 30 µM) was less than 0.316 nM and the viability, T/C [1] was 97.4%. It also gave a viability, T/C [2] of 100%, a viability, T/C [3] of 102% and a viability, T/C [4] of 38.1%. The viability, T/C [5] was 2.27%, the viability, T/C [6] was 0.15% and the viability, T/C [7] was 98.6%. It also gave a viability, T/C [8] of 101%, a viability, T/C [9] of 93% and a viability, T/C [10] of 38%. The viability, T/C [11] was 1.94%, the viability, T/C [12] was 0.09% and the viability, T/C [13] was 85.3%. For the same molecule, the viability, T/C [14] was 94.1%, the viability, T/C [15] was 82.7% and the viability, T/C [16] was 16.9%. The viability, T/C [17] was 1.1%, the viability, T/C [18] was 0.08% and the viability, T/C [19] was 71%. The viability, T/C [20] was 68.7%, the viability, T/C [21] was 65.1% and the viability, T/C [22] was 23.2%. The viability, T/C [23] was 0.49%, the viability, T/C [24] was 0.09% and the viability, T/C [25] was 21.9%. For the same molecule, the viability, T/C [26] was 22.4%, the viability, T/C [27] was 23.8% and the viability, T/C [28] was 3.46%. It also gave a viability, T/C [29] of 0.13% and a viability, T/C [30] of 0.12%.
In the case of `CC(C)n1nc(-c2ccc3oc(N)nc3c2)c2c(N)ncnc21` + CC(C)NCC(C(=O)N1CCN(c2ncnc3c2C(C)CC3O)CC1)c1ccc(Cl)cc1, the IC50 (second compound 0.3 µM) is reported as 15.4 nM, the IC50 (second compound 0.949 µM) is reported as 14.1 nM and the IC50 (second compound 3 µM) is reported as 7.82 nM. For the same molecule, the IC50 (second compound 9.49 µM) was 1.81 nM, the IC50 (second compound 30 µM) was less than 0.316 nM and the viability, T/C [1] was 96%. For the same molecule, the viability, T/C [2] was 96.5%, the viability, T/C [3] was 89.6% and the viability, T/C [4] was 59.2%. The viability, T/C [5] was 31.3%, the viability, T/C [6] was 6.8% and the viability, T/C [7] was 88.9%. It also gave a viability, T/C [8] of 95.8%, a viability, T/C [9] of 80.1% and a viability, T/C [10] of 58.4%. The viability, T/C [11] was 29%, the viability, T/C [12] was 4.5% and the viability, T/C [13] was 88.5%. For the same molecule, the viability, T/C [14] was 77.5%, the viability, T/C [15] was 68.5% and the viability, T/C [16] was 47%. The viability, T/C [17] was 18%, the viability, T/C [18] was 4.85% and the viability, T/C [19] was 66.6%. It also gave a viability, T/C [20] of 57.3%, a viability, T/C [21] of 43% and a viability, T/C [22] of 17.2%. For the same molecule, the viability, T/C [23] was 5.97%, the viability, T/C [24] was 0.5% and the viability, T/C [25] was 16.4%. It also gave a viability, T/C [26] of 18.2%, a viability, T/C [27] of 11.7% and a viability, T/C [28] of 2.86%. The viability, T/C [29] was 0.38% and the viability, T/C [30] was 0.2%.
